Source: patent US10294202B2, “Pyrrolidinones as herbicides” (FMC Corporation, priority 2013, dated 2019)

Columns and labels:
blackgrass = experiment: Test A postemergence herbicide test; type: in vivo, Alopecurus myosuroides
Method in brief: (§1)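 Injury was rated visually about 10 days after treatment on a 0 (no effect) to 100 (complete control) scale, compared with untreated plants. Test chemicals were sprayed postemergence onto greenhouse plants 2–10 cm high at one to two leaves, grown in a loam–sand blend.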

barnyardgrass [1] = experiment: Test B flooded paddy test; type: in vivo, Echinochloa crus-galli; conditions: 500 g ai/ha, Flood; scale of 0 to 100 where 0 is no effect and 100 is complete control
Method in brief: (§2)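 First, plants reach the 2-leaf stage; next, pots are flooded to 3 cm and compound is delivered into the water; finally, after 13 to 15 greenhouse days at constant depth, injury is graded visually from 0 to 100 against controls.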

giant foxtail = experiment: Test A pre-/postemergence herbicide test; type: in vivo, Setaria faberii
Method in brief: (§3)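 Visual 0–100 ratings (100 = complete control) made about 10 days after treatment, greenhouse-held plants compared with untreated controls. Treatments: postemergence sprays on one- to two-leaf plants (2–10 cm tall) and preemergence directed soil sprays after planting in loam–sand, chemicals formulated in non-phytotoxic solvent containing surfactant.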

kochia = experiment: Test A pre-/postemergence herbicide test; type: in vivo, Kochia scoparia
Method in brief: as §3

ragweed = experiment: Test A pre-/postemergence herbicide test; type: in vivo, Ambrosia elatior
Method in brief: as §3

pigweed = experiment: Test A pre-/postemergence herbicide test; type: in vivo, Amaranthus retroflexus
Method in brief: as §3

galium = experiment: Test A postemergence herbicide test; type: in vivo, Galium aparine
Method in brief: as §1

corn = experiment: Test A pre-/postemergence herbicide test; type: in vivo, Zea mays; conditions: Postemergence
Method in brief: as §3

ryegrass, Italian = experiment: Test A pre-/postemergence herbicide test; type: in vivo, Lolium multiflorum
Method in brief: as §3

rice = experiment: Test B flooded paddy test; type: in vivo, Oryza sativa; conditions: 500 g ai/ha, Flood; scale of 0 to 100 where 0 is no effect and 100 is complete control
Method in brief: as §2

barnyardgrass [2] = experiment: Test A pre-/postemergence herbicide test; type: in vivo, Echinochloa crus-galli
Method in brief: as §3

ducksalad = experiment: Test B flooded paddy test; type: in vivo, Heteranthera limosa; conditions: 500 g ai/ha, Flood; scale of 0 to 100 where 0 is no effect and 100 is complete control
Method in brief: as §2

sedge, umbrella = experiment: Test B flooded paddy test; type: in vivo, Cyperus difformis; conditions: 500 g ai/ha, Flood; scale of 0 to 100 where 0 is no effect and 100 is complete control
Method in brief: as §2

wheat = experiment: Test A pre-/postemergence herbicide test; type: in vivo, Triticum aestivum; conditions: Postemergence
Method in brief: as §3

[3] = 125 g ai/ha, visual rating on 0 to 100 scale (0 no effect, 100 complete control), approx. 10 days
[4] = 500 g ai/ha, 0 to 100 scale (0 no effect, 100 complete control)
[5] = Postemergence, 125 g ai/ha, visual rating on 0 to 100 scale (0 no effect, 100 complete control), approx. 10 days
[6] = Postemergence, 500 g ai/ha, 0 to 100 scale (0 no effect, 100 complete control)
[7] = Preemergence, 125 g ai/ha, 0 to 100 scale where 0 is no effect and 100 is complete control
[8] = preemergence, 500 g ai/ha, 0 to 100 scale, 0 is no effect and 100 is complete control
[9] = Preemergence, 500 g ai/ha, visual rating on 0 to 100 scale (0 no effect, 100 complete control)

SMILES | Plant response rating, Blackgrass (blackgrass; [3]) | Plant response rating, Blackgrass (blackgrass; [4]) | Plant response rating, Barnyardgrass (barnyardgrass [1]) | Plant response rating, Foxtail, Giant (giant foxtail; [5]) | Plant response rating, Foxtail, Giant (giant foxtail; [6]) | Plant response rating, Foxtail, Giant (giant foxtail; [7]) | Plant response rating, Foxtail, Giant (giant foxtail; [8]) | Plant response rating, Kochia (kochia; [5]) | Plant response rating, Kochia (kochia; [6]) | Plant response rating, Kochia (kochia; [7]) | Plant response rating, Kochia (kochia; [8]) | Plant response rating, Ragweed (ragweed; [5]) | Plant response rating, Ragweed (ragweed; [6]) | Plant response rating, Ragweed (ragweed; [7]) | Plant response rating, Ragweed (ragweed; [8]) | Plant response rating, Pigweed (pigweed; [5]) | Plant response rating, Pigweed (pigweed; [6]) | Plant response rating, Pigweed (pigweed; [8]) | Plant response rating, Galium (galium; [3]) | Plant response rating, Galium (galium; [4]) | other results
O=C1NCC(c2ccc(Cl)o2)C1C(=O)Nc1cccc(F)c1F (centres unmarked) [Compound 285] | 0 | 0 | 20 | 0 | 0 | 0 | 10 | 0 | 0 | 0 | 0 | 0 | 0 | 0 | 0 | 0 | 0 | 0 | 0 | 0 | Plant response rating, Pigweed (pigweed; [7]): 0; Plant response rating, Corn (corn; [3]): 0; Plant response rating, Corn (corn; [4]): 0; Plant response rating, Ryegrass, Italian (ryegrass, Italian; [5]): 0; Plant response rating, Ryegrass, Italian (ryegrass, Italian; [6]): 0; Plant response rating, Ryegrass, Italian (ryegrass, Italian; [7]): 0; Ryegrass, Italian plant response rating (ryegrass, Italian; [9]): 0; Plant response rating, Rice (rice): 0; Plant response rating, Barnyardgrass (barnyardgrass [2]; [5]): 20; Plant response rating, Barnyardgrass (barnyardgrass [2]; [6]): 70; Plant response rating, Barnyardgrass (barnyardgrass [2]; [7]): 0; Plant response rating, Barnyardgrass (barnyardgrass [2]; [8]): 0; Plant response rating, Ducksalad (ducksalad): 100; Plant response rating, Sedge, Umbrella (sedge, umbrella): 0; Plant response rating, Wheat (wheat; [3]): 0; Plant response rating, Wheat (wheat; [4]): 0
O=C1NCC(c2ccc(Cl)c(Cl)c2)C1C(=O)Nc1ccc(F)c(F)c1F (centres unmarked) [Compound 286] | 0 | 0 | 15 | 60 | 70 | 80 | 80 | 0 | 20 | 30 | 40 | 0 | 0 | 0 | 0 | 0 | 0 | 30 | 0 | 0 | Plant response rating, Pigweed (pigweed; [7]): 20; Plant response rating, Corn (corn; [3]): 0; Plant response rating, Corn (corn; [4]): 0; Plant response rating, Ryegrass, Italian (ryegrass, Italian; [5]): 0; Plant response rating, Ryegrass, Italian (ryegrass, Italian; [6]): 20; Plant response rating, Ryegrass, Italian (ryegrass, Italian; [7]): 0; Ryegrass, Italian plant response rating (ryegrass, Italian; [9]): 20; Plant response rating, Rice (rice): 10; Plant response rating, Barnyardgrass (barnyardgrass [2]; [5]): 60; Plant response rating, Barnyardgrass (barnyardgrass [2]; [6]): 60; Plant response rating, Barnyardgrass (barnyardgrass [2]; [7]): 60; Plant response rating, Barnyardgrass (barnyardgrass [2]; [8]): 60; Plant response rating, Ducksalad (ducksalad): 75; Plant response rating, Sedge, Umbrella (sedge, umbrella): 0; Plant response rating, Wheat (wheat; [3]): 0; Plant response rating, Wheat (wheat; [4]): 0
CSc1cccc(C2CNC(=O)C2C(=O)Nc2ccccc2F)c1 (centres unmarked) [Compound 287] | 0 | 0 | 30 | 0 | 0 | 50 | 80 | 0 | 0 | 0 | 0 | 0 | 0 | 0 | 0 | 0 | 0 | 0 | 0 | 0 | Plant response rating, Pigweed (pigweed; [7]): 0; Plant response rating, Corn (corn; [3]): 0; Plant response rating, Corn (corn; [4]): 0; Plant response rating, Ryegrass, Italian (ryegrass, Italian; [5]): 0; Plant response rating, Ryegrass, Italian (ryegrass, Italian; [6]): 0; Plant response rating, Ryegrass, Italian (ryegrass, Italian; [7]): 0; Ryegrass, Italian plant response rating (ryegrass, Italian; [9]): 0; Plant response rating, Rice (rice): 0; Plant response rating, Barnyardgrass (barnyardgrass [2]; [5]): 50; Plant response rating, Barnyardgrass (barnyardgrass [2]; [6]): 80; Plant response rating, Barnyardgrass (barnyardgrass [2]; [7]): 50; Plant response rating, Barnyardgrass (barnyardgrass [2]; [8]): 80; Plant response rating, Ducksalad (ducksalad): 75; Plant response rating, Sedge, Umbrella (sedge, umbrella): 0; Plant response rating, Wheat (wheat; [3]): 0; Plant response rating, Wheat (wheat; [4]): 0
CSc1cccc(C2CNC(=O)C2C(=O)Nc2cccc(F)c2F)c1 (centres unmarked) [Compound 289] | 0 | 0 | 30 | 30 | 60 | 60 | 90 | 0 | 0 | 0 | 0 | 0 | 0 | 0 | 0 | 0 | 0 | 0 | 0 | 0 | Plant response rating, Corn (corn; [3]): 0; Plant response rating, Corn (corn; [4]): 0; Plant response rating, Ryegrass, Italian (ryegrass, Italian; [5]): 0; Plant response rating, Ryegrass, Italian (ryegrass, Italian; [6]): 0; Plant response rating, Ryegrass, Italian (ryegrass, Italian; [7]): 0; Ryegrass, Italian plant response rating (ryegrass, Italian; [9]): 0; Plant response rating, Rice (rice): 20; Plant response rating, Barnyardgrass (barnyardgrass [2]; [5]): 50; Plant response rating, Barnyardgrass (barnyardgrass [2]; [6]): 70; Plant response rating, Barnyardgrass (barnyardgrass [2]; [7]): 50; Plant response rating, Barnyardgrass (barnyardgrass [2]; [8]): 80; Plant response rating, Ducksalad (ducksalad): 90; Plant response rating, Sedge, Umbrella (sedge, umbrella): 0; Plant response rating, Wheat (wheat; [3]): 0; Plant response rating, Wheat (wheat; [4]): 0
CSc1cccc(C2CNC(=O)C2C(=O)Nc2ccc(F)c(F)c2F)c1 (centres unmarked) [Compound 290] | 0 | 0 | 40 | 30 | 60 | 60 | 80 | 0 | 0 | 0 | 0 | 0 | 0 | 0 | 0 | 0 | 10 | 0 | 0 | 0 | Plant response rating, Pigweed (pigweed; [7]): 0; Plant response rating, Corn (corn; [3]): 0; Plant response rating, Corn (corn; [4]): 0; Plant response rating, Ryegrass, Italian (ryegrass, Italian; [5]): 0; Plant response rating, Ryegrass, Italian (ryegrass, Italian; [6]): 0; Plant response rating, Ryegrass, Italian (ryegrass, Italian; [7]): 0; Ryegrass, Italian plant response rating (ryegrass, Italian; [9]): 0; Plant response rating, Rice (rice): 0; Plant response rating, Barnyardgrass (barnyardgrass [2]; [5]): 50; Plant response rating, Barnyardgrass (barnyardgrass [2]; [6]): 80; Plant response rating, Barnyardgrass (barnyardgrass [2]; [7]): 60; Plant response rating, Barnyardgrass (barnyardgrass [2]; [8]): 80; Plant response rating, Ducksalad (ducksalad): 75; Plant response rating, Sedge, Umbrella (sedge, umbrella): 0; Plant response rating, Wheat (wheat; [3]): 0; Plant response rating, Wheat (wheat; [4]): 0
